Source: patent US12448392B2, “Spiropiperidine derivatives” (89BIO LTD, priority 2016, dated 2025)
Structures can show the parent of a compound that is named as a salt.

biological target: T1, recombinant human baculovirus-expressed GST-tagged FASN (Homo sapiens, UniProt P49327); assay: biochemical; conditions: not given
T1 construct: GST
T1 sequence (P49327 whole entry): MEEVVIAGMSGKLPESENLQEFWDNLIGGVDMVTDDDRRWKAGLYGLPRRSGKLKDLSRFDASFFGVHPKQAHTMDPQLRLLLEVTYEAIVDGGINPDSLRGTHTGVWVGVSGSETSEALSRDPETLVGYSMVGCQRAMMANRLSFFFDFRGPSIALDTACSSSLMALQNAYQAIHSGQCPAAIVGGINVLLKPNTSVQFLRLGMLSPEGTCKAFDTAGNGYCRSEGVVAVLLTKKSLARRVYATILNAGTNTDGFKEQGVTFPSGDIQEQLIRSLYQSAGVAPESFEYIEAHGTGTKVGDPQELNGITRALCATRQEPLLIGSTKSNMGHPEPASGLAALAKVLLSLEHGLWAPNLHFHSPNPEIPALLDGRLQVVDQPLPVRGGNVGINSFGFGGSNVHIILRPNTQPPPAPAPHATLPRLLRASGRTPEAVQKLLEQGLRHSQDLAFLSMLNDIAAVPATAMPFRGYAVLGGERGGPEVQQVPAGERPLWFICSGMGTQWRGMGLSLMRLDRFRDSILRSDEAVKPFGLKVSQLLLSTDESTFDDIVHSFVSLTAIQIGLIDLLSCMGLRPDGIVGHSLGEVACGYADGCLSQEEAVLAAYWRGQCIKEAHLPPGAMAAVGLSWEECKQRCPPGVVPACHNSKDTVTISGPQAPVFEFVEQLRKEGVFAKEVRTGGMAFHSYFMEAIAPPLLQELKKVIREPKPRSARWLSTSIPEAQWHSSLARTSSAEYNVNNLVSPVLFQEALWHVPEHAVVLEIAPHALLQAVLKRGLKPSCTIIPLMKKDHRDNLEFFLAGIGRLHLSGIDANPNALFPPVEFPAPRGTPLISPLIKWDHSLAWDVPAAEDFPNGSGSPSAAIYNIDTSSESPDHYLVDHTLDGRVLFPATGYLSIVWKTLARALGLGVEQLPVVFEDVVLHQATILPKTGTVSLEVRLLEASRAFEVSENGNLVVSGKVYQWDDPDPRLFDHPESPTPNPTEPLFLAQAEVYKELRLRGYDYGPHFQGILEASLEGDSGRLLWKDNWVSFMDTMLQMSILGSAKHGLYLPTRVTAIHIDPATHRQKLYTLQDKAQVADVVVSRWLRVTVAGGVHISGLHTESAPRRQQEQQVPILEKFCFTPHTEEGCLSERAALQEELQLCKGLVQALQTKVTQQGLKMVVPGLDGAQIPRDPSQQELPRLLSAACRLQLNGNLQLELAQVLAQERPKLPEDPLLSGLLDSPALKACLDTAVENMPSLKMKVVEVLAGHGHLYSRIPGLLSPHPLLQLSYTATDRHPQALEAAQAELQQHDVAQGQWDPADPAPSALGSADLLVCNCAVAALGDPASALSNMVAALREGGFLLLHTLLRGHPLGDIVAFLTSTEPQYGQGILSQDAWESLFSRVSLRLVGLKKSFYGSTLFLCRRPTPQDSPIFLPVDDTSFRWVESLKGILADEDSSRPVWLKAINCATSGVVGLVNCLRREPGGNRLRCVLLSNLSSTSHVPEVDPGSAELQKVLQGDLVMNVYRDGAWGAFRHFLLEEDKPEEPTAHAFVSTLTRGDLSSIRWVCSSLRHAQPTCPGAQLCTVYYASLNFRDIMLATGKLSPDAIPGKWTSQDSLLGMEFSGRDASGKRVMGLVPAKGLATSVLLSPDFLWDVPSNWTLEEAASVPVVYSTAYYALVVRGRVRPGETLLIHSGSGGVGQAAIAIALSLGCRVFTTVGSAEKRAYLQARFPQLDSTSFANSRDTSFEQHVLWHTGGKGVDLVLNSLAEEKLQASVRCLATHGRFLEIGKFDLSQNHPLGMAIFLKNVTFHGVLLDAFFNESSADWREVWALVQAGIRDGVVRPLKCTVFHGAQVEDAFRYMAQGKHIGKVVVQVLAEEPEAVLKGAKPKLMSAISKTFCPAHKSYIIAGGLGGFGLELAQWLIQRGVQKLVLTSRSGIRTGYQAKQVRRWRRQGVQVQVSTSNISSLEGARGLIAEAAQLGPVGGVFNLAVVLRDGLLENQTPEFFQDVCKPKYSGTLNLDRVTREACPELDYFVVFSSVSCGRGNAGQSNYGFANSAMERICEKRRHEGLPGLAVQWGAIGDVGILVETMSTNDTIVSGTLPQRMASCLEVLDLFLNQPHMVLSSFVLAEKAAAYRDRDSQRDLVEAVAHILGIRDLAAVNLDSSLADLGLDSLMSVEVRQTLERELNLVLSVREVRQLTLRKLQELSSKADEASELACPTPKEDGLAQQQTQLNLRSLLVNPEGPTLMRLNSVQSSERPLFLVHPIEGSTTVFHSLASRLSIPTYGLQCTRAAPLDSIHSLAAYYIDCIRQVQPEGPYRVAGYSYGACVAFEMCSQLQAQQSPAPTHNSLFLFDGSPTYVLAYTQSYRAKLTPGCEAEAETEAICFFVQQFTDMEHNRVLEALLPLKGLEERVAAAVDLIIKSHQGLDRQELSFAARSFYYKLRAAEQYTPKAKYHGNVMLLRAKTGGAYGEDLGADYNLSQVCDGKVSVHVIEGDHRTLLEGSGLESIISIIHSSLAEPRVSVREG

Row | SMILES | IC50 [nM]
1 | Cc1c(-c2ccc3c(c2)COC2(CCN(C(=O)C4CC4)CC2)O3)ccc2cccnc12 [Example 54, Cyclopropyl-[6-(8-methyl-7-quinolyl)spiro[4H-1,3-benzodioxine-2,4′-piperidine]-1′-yl]methanone] | 1 to 99
2 | Cc1c(-c2ccc3c(c2)COC2(CCN(C(=O)NO)CC2)O3)cnc2ccccc12 [Example 140, 6-(4-Methyl-3-quinolyl)spiro[4H-1,3-benzodioxine-2,4′-piperidine]-1′-carbohydroxamic acid] | 1000 to 10000
3 | Cc1c(-c2ccc3c(c2)COC2(CCN(C(=O)NOC(C)C)CC2)O3)ccc2ccnn12 [Example 130, N-Isopropoxy-6-(7-methylpyrazolo[1,5-a]pyridin-6-yl)spiro[4H-1,3-benzodioxine-2,4′-piperidine]-1′-carboxamide] | 1 to 99
4 | CC(=O)OCC(=O)N1CCC2(CC1)OCc1cc(-c3ccc4cccnc4c3C)ccc1O2 [Example 60, [2-[6-(8-methyl-7-quinolyl)spiro[4H-1,3-benzodioxine-2,4′-piperidine]-1′-yl]-2-oxo-ethyl]acetate] | 100 to 999
5 | CCC(=O)N1CCC2(CC1)OCc1cc(-c3cccnc3)ccc1O2 [Example 224, 1-[6-(3-Pyridyl)spiro[4H-1,3-benzodioxine-2,4′-piperidine]-1′-yl]propan-1-one, HCl] | 1000 to 10000
6 | O=C(C1CC1)N1CCC2(CC1)OCc1cc(-c3ccccn3)ccc1O2 [Example 219, Cyclopropyl-[6-(2-pyridyl)spiro[4H-1,3-benzodioxine-2,4′-piperidine]-1′-yl]methanone, HCl] | 1000 to 10000
7 | CONC(=O)N1CCC2(CC1)OCc1cc(-c3cc4ccccc4cn3)ccc1O2 [Example 147, 6-(3-Isoquinolyl)-N-methoxy-spiro[4H-1,3-benzodioxine-2,4′-piperidine]-1′-carboxamide] | 1 to 99
8 | CCC(=O)N1CCC2(CC1)OCc1cc(-c3ccccn3)ccc1O2 [Example 218, 1-[6-(2-Pyridyl)spiro[4H-1,3-benzodioxine-2,4′-piperidine]-1′-yl]propan-1-one, HCl] | 1000 to 10000
9 | CCC(=O)N1CCC2(CC1)OCc1cc(-c3ccc4cccnc4c3C)ccc1O2 [Example 53, 1-[6-(8-Methyl-7-quinolyl)spiro[4H-1,3-benzodioxine-2,4′-piperidine]-1′-yl]propan-1-one] | 1 to 99

same assay, conditions: 5 nM FASN, 150 μM NADPH, 10 μM acetyl-CoA, 25 μM malonyl-CoA, 90 minutes incubation; read-out: IC50 data for Compounds of Formula I, Activity

Row | SMILES | IC50 [nM]
10 | Cc1c(-c2ccc3c(c2)CCC2(CCN(C(=O)C4CC4)CC2)O3)cnc2ccccc12 [Example 3, Cyclopropyl-[6-(4-methyl-3-quinolyl)spiro[chromane-2,4′-piperidine]-1′-yl]-methanone HCl] | 1 to 99
11 | CCC(=O)N1CCC2(CCc3cc(-c4ccc5nccn5c4C)ccc3O2)CC1 [Example 26, 1-[6-(5-methylimidazo[1,2-a]pyridin-6-yl)spiro[chromane-2,4′-piperidine]-1′-yl]propan-1-one] | 100 to 999
12 | Cc1c(-c2ccc3c(c2)CCC2(CCN(C(=O)NO)CC2)O3)ccc2ccnn12 [Example 125, 6-(7-Methylpyrazolo[1,5-a]pyridin-6-yl)spiro[chromane-2,4′-piperidine]-1′-carbohydroxamic acid] | 1000 to 10000
13 | CCC(=O)N1CCC2(CCc3cc(-c4cnc5c(C)cccc5c4)ccc3O2)CC1 [Example 12, 1-[6-(8-Methyl-3-quinolyl)spiro[chromane-2,4′-piperidine]-1′-yl]propan-1-one] | 1 to 99
14 | Cc1c(-c2ccc3c(c2)CCC2(CCN(C(=O)C4CC4)CC2)O3)ccc2cccnc12 [Example 7, Cyclopropyl-[6-(8-methyl-7-quinolyl)spiro[chromane-2,4′-piperidine]-1′-yl]methanone, HCl] | 1 to 99
15 | NC(=O)N1CCC2(CCc3cc(-c4ccc5cccnc5c4Cl)ccc3O2)CC1 [Example 63, 6-(8-Chloro-7-quinolyl)spiro[chromane-2,4′-piperidine]-1′-carboxamide] | 1 to 99
16 | CCNC(=O)N1CCC2(CC1)Cc1cc(-c3ccc4ccnn4c3C)ccc1O2 [Example 165, N-Ethyl-5-(7-methylpyrazolo[1,5-a]pyridin-6-yl)spiro[3H-benzofuran-2,4′-piperidine]-1′-carboxamide] | 1000 to 10000
17 | CCNC(=O)N1CCC2(CC1)Cc1cc(-c3ccc4cccnc4c3C)ccc1O2 [Example 156, N-Ethyl-5-(8-methyl-7-quinolyl)spiro[3H-benzofuran-2,4′-piperidine]-1′-carboxamide] | 1000 to 10000
18 | COc1c(-c2ccc3c(c2)CCC2(CCN(C(=O)[C@H]4CCCO4)CC2)O3)ccc2cccnc12 [Example 16, [6-(8-Methoxy-7-quinolyl)spiro[chromane-2,4′-piperidine]-1′-yl]-[(2R)-tetra-hydrofuran-2-yl]methanone HCl] | 1 to 99
19 | CONC(=O)N1CCC2(CCc3cc(-c4ccc5cccnc5c4C)c(C)cc3O2)CC1 [Example 245, N-methoxy-7-methyl-6-(8-methyl-7-quinolyl)spiro[chromane-2,4′-piperidine]-1′-carboxamide] | 100 to 999
20 | O=C(NO)N1CCC2(CCc3cc(-c4ccc5cccnc5c4Cl)ccc3O2)CC1 [Example 68, 6-(8-Chloro-7-quinolyl)spiro[chromane-2,4′-piperidine]-1′-carbohydroxamic acid] | 100 to 999
21 | Cc1cc(-c2ccc3c(c2)CCC2(CCN(C(=O)[C@H]4CCCO4)CC2)O3)cc2cccnc12 [Example 20, [6-(8-Methyl-6-quinolyl)spiro[chromane-2,4′-piperidine]-1′-yl]-[(2R)-tetrahydrofuran-2-yl]methanone] | 1 to 99
22 | Cc1c(-c2ccc3c(c2)CCC2(CCN(C(N)=O)CC2)O3)cnc2ccccc12 [Example 190, 6-(4-methyl-3-quinolyl)spiro[chromane-2,4′-piperidine]-1′-carboxamide] | 1 to 99
23 | NC(=O)N1CCC2(CCc3cc(-c4cc5ccccc5cn4)ccc3O2)CC1 [Example 143, 6-(3-Isoquinolyl)spiro[chromane-2,4′-piperidine]-1′-carboxamide] | 1000 to 10000
24 | O=C(C1CC1)N1CCC2(CCc3cc(-c4ccc5cccnc5c4Cl)ccc3O2)CC1 [Example 10, [6-(8-Chloro-7-quinolyl)spiro[chromane-2,4′-piperidine]-1′-yl]-cyclopropyl-methanone, HCl] | 1 to 99
25 | COc1c(-c2ccc3c(c2)CC2(CCN(C(=O)NOC4CCCCO4)CC2)O3)ccc2cccnc12 (stereo not shown) [Example 168, 5-(8-Methoxy-7-quinolyl)-N-tetrahydropyran-2-yloxy-spiro[3H-benzofuran-2,4′-piperidine]-1′-carboxamide] | 1000 to 10000

Row | SMILES | IC50 [nM]
26 | Cc1c(-c2cc(F)c3c(c2)CCC2(CCN(C(N)=O)CC2)O3)ccc2cccnc12 [Example 237, 8-Fluoro-6-(8-methyl-7-quinolyl)spiro[chromane-2,4′-piperidine]-1′-carboxamide] | 1 to 99
27 | Cc1cc2c(cc1-c1ccc3cccnc3c1C)CCC1(CCN(C(N)=O)CC1)O2 [Example 244, 7-Methyl-6-(8-methyl-7-quinolyl)spiro[chromane-2,4′-piperidine]-1′-carboxamide] | 1000 to 10000
28 | NC(=O)N1CCC2(CCc3cc(-c4cc5ccccc5o4)ccc3O2)CC1 [Example 235, 6-(Benzofuran-2-yl)spiro[chromane-2,4′-piperidine]-1′-carboxamide] | 1000 to 10000
29 | Cc1c(-c2ccc3c(c2)CCC2(CCN(C(=O)NC(C)C)CC2)O3)ccc2nccn12 [Example 111, N-Isopropyl-6-(5-methylimidazo[1,2-a]pyridin-6-yl)spiro[chromane-2,4′-piperidine]-1′-carboxamide] | 100 to 999
30 | CCC(=O)N1CCC2(CCc3cc(-c4ccncc4)ccc3O2)CC1 [Example 226, 1-[6-(4-Pyridyl)spiro[chromane-2,4′-piperidine]-1′-yl]propan-1-one, HCl] | 1000 to 10000
31 | CCC(=O)N1CCC2(CCc3cc(-c4cnc5ccccc5c4C)ccc3O2)CC1 [Example 2, 1-[6-(4-Methyl-3-quinolyl)spiro[chromane-2,4′-piperidine]-1′-yl]propan-1-one, HCl] | 1 to 99
32 | CCCNC(=O)N1CCC2(CCc3cc(-c4ccc5cccnc5c4C)ccc3O2)CC1 [Example 99, 6-(8-Methyl-7-quinolyl)-N-propyl-spiro[chromane-2,4′-piperidine]-1′-carboxamide] | 1 to 99
33 | CCCONC(=O)N1CCC2(CCc3cc(-c4ccc5c(C)nccc5c4)ccc3O2)CC1 [Example 186, 6-(1-Methyl-6-isoquinolyl)-N-propoxy-spiro[chromane-2,4′-piperidine]-1′-carboxamide] | 1 to 99
34 | CCC(=O)N1CCC2(CCc3cc(-c4cccnc4)ccc3O2)CC1 [Example 221, 1-[6-(3-Pyridyl)spiro[chromane-2,4′-piperidine]-1′-yl]propan-1-one, HCl] | 1000 to 10000
35 | O=C(C1CC1)N1CCC2(CCc3cc(-c4ccccn4)ccc3O2)CC1 [Example 216, Cyclopropyl-[6-(2-pyridyl)spiro[chromane-2,4′-piperidine]-1′-yl]methanone, HCl] | 1000 to 10000
36 | CCCNC(=O)N1CCC2(CCc3cc(-c4ccc5c(C)nccc5c4)ccc3O2)CC1 [Example 188, 6-(1-methyl-6-isoquinolyl)-N-propyl-spiro[chromane-2,4′-piperidine]-1′-carboxamide] | 1 to 99
37 | O=C([C@H]1CCCO1)N1CCC2(CCc3cc(-c4ccc5c(C6CC6)nccc5c4)ccc3O2)CC1 [Example 5, [6-(1-Cyclopropyl-6-isoquinolyl)spiro[chromane-2,4′-piperidine]-1′-yl]-[(2R)-tetrahydrofuran-2-yl]methanone] | 1 to 99
38 | COc1c(-c2ccc3c(c2)CCC2(CCN(C(=O)C4CC4)CC2)O3)ccc2cccnc12 [Example 15, Cyclopropyl-[6-(8-methoxy-7-quinolyl)spiro[chromane-2,4′-piperidine]-1′-yl]-methanone, HCl] | 1 to 99
39 | CCONC(=O)N1CCC2(CCc3cc(-c4ccc5cccnc5c4C)ccc3O2)CC1 [Example 101, N-Ethoxy-6-(8-methyl-7-quinolyl)spiro[chromane-2,4′-piperidine]-1′-carboxamide] | 1 to 99
40 | CONC(=O)N1CCC2(CCc3cc(-c4ccc5c(C)nccc5c4)cc(F)c3O2)CC1 [Example 242] | 1 to 99
